Measurements taken from US20260130395A1, “Water Dispersible Botanical Compositions” (Aquila Black Limited, priority 2021, published 2026).

What was measured:
[1] = Stability of cannabinoid entourage and Vitamin E components of the powder concentrate by LCMSMS; type: physicochemical; details: powder stored at 21-25° C.
Experimental: At each time period, 0.05 g of powder was dissolved in 10 ml-15 of ethanol, diluted to fall within the analytical range, and injected into the LCMSMS for analysis.

[2] = Stability of cannabinoid compounds and Vitamin E components in Beverage 1 (AB White) by LCMSMS; type: physicochemical; details: stored at 8° C.

Cc1c(C)c2c(c(C)c1O)CC[C@@](C)(CCC[C@H](C)CCC[C@H](C)CCCC(C)C)O2 [α-Tocopherol]
Stability of Vitamin Es in Powder Concentrate ([1]; 0 days): 4.85 mg/g powder
Stability of Vitamin Es in Powder Concentrate ([1]; 1 days): 4.89 mg/g powder
Stability of Vitamin Es in Powder Concentrate ([1]; 2 days): 4.79 mg/g powder
Stability of Vitamin Es in Powder Concentrate ([1]; 3 days): 4.69 mg/g powder
Stability of Vitamin Es in Powder Concentrate ([1]; 5 days): 4.99 mg/g powder
Stability of Vitamin Es in Powder Concentrate ([1]; 8 days): 4.69 mg/g powder
Stability of Vitamin Es in Powder Concentrate ([1]; 9 days): 4.75 mg/g powder
Stability of Vitamin Es in Powder Concentrate ([1]; 10 days): 4.77 mg/g powder
Stability of Vitamin Es in Powder Concentrate ([1]; 11 days): 5.04 mg/g powder
Stability of Vitamin Es in Powder Concentrate ([1]; 12 days): 5.01 mg/g powder
Stability of Vitamin Es in Powder Concentrate ([1]; 15 days): 5.07 mg/g powder
Stability of Vitamin Es in Powder Concentrate ([1]; 16 days): 4.96 mg/g powder
Stability of Vitamin Es in Powder Concentrate ([1]; 17 days): 4.94 mg/g powder
Stability of Vitamin Es in Powder Concentrate ([1]; 18 days): 4.77 mg/g powder
Stability of Vitamin Es in Powder Concentrate ([1]; 19 days): 5.04 mg/g powder
Stability of Vitamin Es in Powder Concentrate ([1]; 22 days): 4.94 mg/g powder
Stability of Vitamin Es in Powder Concentrate ([1]; 23 days): 4.91 mg/g powder
Stability of Vitamin Es in Powder Concentrate ([1]; 24 days): 5.00 mg/g powder
Stability of Vitamin Es in Powder Concentrate ([1]; 25 days): 5.06 mg/g powder
Stability of Vitamin Es in Powder Concentrate ([1]; 26 days): 4.84 mg/g powder
Stability of Vitamin Es in Powder Concentrate ([1]; 29 days): 4.85 mg/g powder
Stability of Vitamin Es in Powder Concentrate ([1]; 30 days): 4.83 mg/g powder
Stability of Vitamin Es in Powder Concentrate ([1]; 60 days): 4.91 mg/g powder
Stability of Vitamin Es in Powder Concentrate ([1]; 90 days): 4.96 mg/g powder
Stability of Vitamin Es in Powder Concentrate ([1]; 120 days): 4.93 mg/g powder
Stability of Vitamin Es in Powder Concentrate ([1]; 150 days): 4.69 mg/g powder
Stability of Vitamin Es in Powder Concentrate ([1]; 180 days): 4.70 mg/g powder
Stability of Vitamin Es in Powder Concentrate ([1]; 210 days): 4.84 mg/g powder
Stability of Vitamin Es in Powder Concentrate ([1]; 240 days): 5.03 mg/g powder
Stability of Vitamin Es in Powder Concentrate ([1]; 270 days): 4.78 mg/g powder
Stability of Vitamin Es in Powder Concentrate ([1]; 300 days): 4.81 mg/g powder
Stability of Vitamin Es in Powder Concentrate ([1]; 330 days): 4.81 mg/g powder
Stability of Vitamin Es in Powder Concentrate ([1]; 360 days): 4.83 mg/g powder
Stability of Vitamin Es in Powder Concentrate ([1]; 390 days): 4.91 mg/g powder
Stability of Vitamin Es in Powder Concentrate ([1]; 420 days): 4.69 mg/g powder
Stability of Vitamin Es in Powder Concentrate ([1]; 450 days): 5.00 mg/g powder
Stability of Vitamin Es in Powder Concentrate ([1]; 480 days): 4.98 mg/g powder
Stability of Vitamin Es in Powder Concentrate ([1]; 510 days): 5.02 mg/g powder
Stability of Vitamin Es in Powder Concentrate ([1]; 540 days): 5.03 mg/g powder
Stability of Vitamin Es in Powder Concentrate ([1]; 570 days): 4.72 mg/g powder
Stability of Vitamin Es in AB White ([2]; 0 days): 26.1 µg/mL
Stability of Vitamin Es in AB White ([2]; 1 days): 24.90 µg/mL
Stability of Vitamin Es in AB White ([2]; 2 days): 23.46 µg/mL
Stability of Vitamin Es in AB White ([2]; 3 days): 23.21 µg/mL
Stability of Vitamin Es in AB White ([2]; 5 days): 23.39 µg/mL
Stability of Vitamin Es in AB White ([2]; 8 days): 24.65 µg/mL
Stability of Vitamin Es in AB White ([2]; 9 days): 24.42 µg/mL
Stability of Vitamin Es in AB White ([2]; 10 days): 24.57 µg/mL
Stability of Vitamin Es in AB White ([2]; 11 days): 25.45 µg/mL
Stability of Vitamin Es in AB White ([2]; 12 days): 23.97 µg/mL
Stability of Vitamin Es in AB White ([2]; 15 days): 25.48 µg/mL
Stability of Vitamin Es in AB White ([2]; 16 days): 25.02 µg/mL
Stability of Vitamin Es in AB White ([2]; 17 days): 24.17 µg/mL
Stability of Vitamin Es in AB White ([2]; 18 days): 23.28 µg/mL
Stability of Vitamin Es in AB White ([2]; 19 days): 24.12 µg/mL
Stability of Vitamin Es in AB White ([2]; 22 days): 23.51 µg/mL
Stability of Vitamin Es in AB White ([2]; 23 days): 24.27 µg/mL
Stability of Vitamin Es in AB White ([2]; 24 days): 24.72 µg/mL
Stability of Vitamin Es in AB White ([2]; 25 days): 25.28 µg/mL
Stability of Vitamin Es in AB White ([2]; 26 days): 25.25 µg/mL
